According to patent US6600035B1, “6-(substituted methylene) penems and intermediates” (SMithKline Beecham p.l.c., priority 1992, dated 2003):

Experiments:
[1] = molecular target: TEM-1 β-lactamase enzyme (Escherichia coli, UniProt P62593); assay: β-lactamase inhibitory activity: 50% inhibition of β-lactam hydrolysis, TEM-1; type: biochemical
[2] = molecular target: PC1 β-lactamase enzyme (Staphylococcus aureus, UniProt P00807); assay: biochemical
[3] = molecular target: P. mirabilis β-lactamase enzyme; assay: β-lactamase inhibitory activity: 50% inhibition of β-lactam hydrolysis, P. mirabilis; type: biochemical; details: read-out: I50 (concentration required to achieve 50% inhibition of β-lactam hydrolysis)
[4] = molecular target: BC II β-lactamase enzyme (Bacillus cereus, UniProt P04190); assay: β-lactamase inhibitory activity: 50% inhibition of β-lactam hydrolysis, BC II; type: biochemical
[5] = molecular target: OXA-1 β-lactamase enzyme (Escherichia coli, UniProt P13661); assay: biochemical
[6] = molecular target: P99 β-lactamase enzyme (Enterobacter cloacae, UniProt P05364); assay: biochemical
Chain of P99 β-lactamase enzyme (P05364 21-381): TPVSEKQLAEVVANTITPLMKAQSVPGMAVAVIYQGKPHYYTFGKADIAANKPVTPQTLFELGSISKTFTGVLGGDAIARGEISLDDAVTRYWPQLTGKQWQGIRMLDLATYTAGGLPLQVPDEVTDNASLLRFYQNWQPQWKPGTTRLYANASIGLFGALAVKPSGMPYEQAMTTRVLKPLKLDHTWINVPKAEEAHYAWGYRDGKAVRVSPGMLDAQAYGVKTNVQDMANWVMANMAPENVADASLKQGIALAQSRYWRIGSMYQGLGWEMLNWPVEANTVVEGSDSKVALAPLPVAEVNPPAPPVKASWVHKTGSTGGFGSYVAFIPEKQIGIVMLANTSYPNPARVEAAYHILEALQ

Chain of PC1 β-lactamase enzyme (P00807 25-281): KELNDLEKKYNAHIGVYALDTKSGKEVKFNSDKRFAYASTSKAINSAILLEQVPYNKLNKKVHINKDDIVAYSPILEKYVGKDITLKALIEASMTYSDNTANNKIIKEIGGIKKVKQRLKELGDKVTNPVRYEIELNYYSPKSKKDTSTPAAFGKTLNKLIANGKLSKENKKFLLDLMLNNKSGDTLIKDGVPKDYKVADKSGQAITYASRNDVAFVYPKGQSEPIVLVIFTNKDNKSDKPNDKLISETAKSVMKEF
Chain of TEM-1 β-lactamase enzyme (P62593 24-286 limits assumed): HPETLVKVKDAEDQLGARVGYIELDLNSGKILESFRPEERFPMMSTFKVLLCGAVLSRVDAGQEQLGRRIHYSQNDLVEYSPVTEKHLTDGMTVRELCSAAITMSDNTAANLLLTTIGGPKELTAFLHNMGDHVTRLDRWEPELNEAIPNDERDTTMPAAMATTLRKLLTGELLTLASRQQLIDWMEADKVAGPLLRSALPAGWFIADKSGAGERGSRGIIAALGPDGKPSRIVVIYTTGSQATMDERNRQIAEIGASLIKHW
Chain of BC II β-lactamase enzyme (P04190 31-257): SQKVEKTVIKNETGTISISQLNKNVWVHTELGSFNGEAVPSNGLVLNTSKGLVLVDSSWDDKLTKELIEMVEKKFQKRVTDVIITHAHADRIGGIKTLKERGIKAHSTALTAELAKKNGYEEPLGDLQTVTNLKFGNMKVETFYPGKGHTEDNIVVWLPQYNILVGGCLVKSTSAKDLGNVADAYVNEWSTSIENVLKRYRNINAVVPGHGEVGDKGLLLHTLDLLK
Chain of OXA-1 β-lactamase enzyme (P13661 26-276): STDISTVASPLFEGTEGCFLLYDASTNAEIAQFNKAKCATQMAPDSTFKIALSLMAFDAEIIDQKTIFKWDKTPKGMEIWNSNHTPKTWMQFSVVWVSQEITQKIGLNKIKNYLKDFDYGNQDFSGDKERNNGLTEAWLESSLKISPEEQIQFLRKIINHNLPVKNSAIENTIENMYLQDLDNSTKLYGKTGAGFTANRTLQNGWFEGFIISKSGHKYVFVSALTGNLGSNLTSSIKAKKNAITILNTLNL

## O=C(O)C1=CS[C@@H]2/C(=C\c3cn4c(n3)SCC4)C(=O)N12 [Example 1, Sodium (5R)-6[(Z)-(2,3-dihydroimidazo[2,1-b]thiazol-6-yl)methylene]-penem-3-carboxylate]
[1]
  IC50: 10 nM
[2]
  IC50: 10 nM
[3]
  IC50: 10 nM
[4]
  IC50: 48600 nM
[5]
  IC50: 10 nM
[6]
  IC50: < 5 nM
